# Measured values: US5229265A, “Process for analyzing clastogenic agents” (Litron Laboratories, priority 1990, dated 1993)
# “And” between values parts separate entries of the source, which are not always exact repeats. Identical values can stand only once. “Also recorded” adds a separate entry of the source.
# How the values were obtained:
# [1] = tested on: micronucleated cells in blood; assay: Cyclophosphamide dose response, flow cytometric micronucleus assay; type: in vivo, mouse
# Protocol: However, an effective flow cytometry based micronulceus assay should also be able to reflect changes in the number of MN-cells at different doses of a clastogen. Accordingly, another example of this embodiment involves a cyclophosphamide dose response analysis. Ten mice were divided into sets of two for this experiment. An initial blood sample was taken (t=0hr) for each mouse. The two control mice were dosed with saline while the other sets received different doses of cyclophosphamide (50,100,150 or 200 μg/g body weight). Each set was treated twice, at t=0 and t=48 hrs. Final blood samples were obtained at t=96hrs, and were fixed and stained with Hoechst 33258 to which PC microspheres had been added. The position of the microsphere peak was initially calibrated using the malaria infected RBCs as the primary standard. Each sample was then checked to insure that the microsphere peak was still at the calibrated position before acquisition. Some slight adjustments were necessary in the gains during the course of the analysis, during which ten t=0 samples and ten t=96 samples were run. One million total cells were counted for each sample. Gates were set on forward scatter (e.g. FIG. 3), side scatter (before the major cell peak), and a red gate (e.g. as shown in FIG. 13). These gates insured that only red blood cells and their associated micronuclei would be acquired. Following acquisition, the number of micronucleated cells at t=0 were subtracted from the number at t=96hr for each mouse. The average for the saline controls were slightly negative, and were recorded as zero in this graph. […] In addition, the high doses were approaching 1500 events more than the zero (control) values. […] For comparison, the 96hr samples were also hand counted and the number of MNs/1000 PCEs were determined.
# [2] = tested on: micronucleated cells in blood; assay: Flow cytometric micronucleus assay, dual parameter data, cyclophosphamide, per 10^6 cells; type: in vivo, mouse; conditions: for Mns (T = 96 hr): Hoechst 33258; for Δ (T96 - T0): per mouse difference and mean of differences
# Text: The fixation procedure can affect the permeability of a cell, cell morphology and the amount of undesirable autofluorescence that is associated with a cell preparation. Fixing procedures can cause changes in cell structure (that are reflected in the light scatter patterns) as well as changes in the distribution of the dye molecules within the cells (resulting in altered fluorescence emission patterns). Practioners of the art are unaware that fixing the cells at ultralow temperatures circumvents these fixation problems and provides cells that are suitable for subsequent staining and FCM analysis. Initially, the cells are centrifuged in order to separate them from serum components which could aggregate when added to cold fixative. To fix cells, a fresh blood sample (25 μl) containing an anticogulant is suspended in a solution containing 1% BSA and 10% dimethylsulfoxide (DMSO) in PBS (2 ml). The cells are centrifuged at 500×g for five minutes at room temperature. The supernatant is discarded and the pellet is resuspended in the small amount of residual supernatant that remains. This cell suspension is cooled to 0° C., the cells are diluted further with cold (-70° C.) absolute methanol (2 ml) and it is incubated at -70° C. for five minutes. The cell suspension is then immediately diluted with 1% BSA in PBS (10 ml) and is centrifuged at 500×g for 5 minutes. The low temperature treatment yields fixed cells with good morphology as viewed with either inverted phase contrast microscopy or fluorescent microscopy. Autofluorescence of these cells is very low, in contrast to glutaraldehyde or paraformaldehyde fixation procedures that are widely used in the art. Other volumes of blood and/or BSA in PBS are also compatible with this cell fixing process. The volume of methanol should be in the range of 0.5 to 20 ml. The temperature of the methanol should be in the range -30° C. to -90° C., and the fixation time in the range of 1 minute to 60 minutes for good results. When cells are fixed in alcohol at higher temperatures (e.g. in the range of +37° C. to - 20° C.), they tend to aggregate and quickly settle to the bottom of the centrifuge tube. […] Other ultra cold solvents can be used in place of methanol, such as acetone, methanol/acetone solutions, etc.. Two fixed cell samples can be prepared for each mouse, an initial (time=0) sample and a final time=96 hr sample. Cells fixed in this way can be stored at 0° C. for weeks with no significant deterioration and are ready for staining and MN analysis.
# It is known to practioners in the art that a variety of fluorescent dyes can be used to stain the DNA and RNA of cells. Even so, the specific stain, combinations or staining conditions that are optimum for the FCM based micronucleus assay are unresolved. […] These dye can be used individually or together to stain different cell populations. By choosing proper concentrations of these two dyes in conjunction with 363 nm excitation wavelength, it is possible to obtain a blue fluorescence signal from the Hoechst 33258 labeled micronucleii. A red fluorescence signal can be obtained from propidium iodide labeled PCEs. Whereas neither the dye combination, the dye concentration, the dye excitation wavelengths nor the appropriate buffer systems are known to practitioners in the art for an FCM based micronucleus assay, the following staining protocal is submitted as an embodiment of the present invention. A 10× stock solution of the dye should be prepared by dissolving 14.3 mg Hoechst 33258 in methanol (100 ml). A working solution is then prepared by adding 0.25 ml of the 10× stock solution to 9.75 ml of complete Sorensen's buffer. This working solution is then passed through an 0.2 micron acro-filter disk (Gelman Sciences) to remove any debris. The filtered working solution is further diluted by adding 25 μl to 967.5 μl of saline buffer (9 g NaCl and 0.445 g sodium bicarbonate per liter). […]
# [3] = CP 100 μg/g body wt IP at 0 and 48 hours
# [4] = CP 100 μg/g body wt IP at 0 and 48 hours, listed as CP
structure (smiles),measurement,setting,value
O=P1(N(CCCl)CCCl)NCCCO1 (stereo not drawn) [cyclophosphamide],dose response,"[1]; cyclophosphamide 50, 100, 150 or 200 μg/g body weight at t=0 and t=48 hrs",dose response relationship is evident; also recorded: good dose response relationship is obtained
same,clastogenic action at the lower doses,"[1]; cyclophosphamide, lower doses, FIG. 14",data at the lower doses clearly supports the conclusion that clastogenic action was present
same,increase in MN events over zero (control) values,"[1]; high doses of cyclophosphamide (50-200 μg/g body weight tested) at t=0 and t=48 hrs, one million total cells",~1500 events
same,Mns (T = 96 hr),[2]; [3],2954 MNs per 10^6 cells
same,Mns (T = 96 hr),[2]; [4],2591 MNs per 10^6 cells and 2453 MNs per 10^6 cells and 2626 MNs per 10^6 cells and 2708 MNs per 10^6 cells and 2594 ± 106 MNs per 10^6 cells
same,Δ (T96 - T0),[2]; [3],1124 MNs per 10^6 cells
same,Δ (T96 - T0),[2]; [4],1099 MNs per 10^6 cells and 1039 MNs per 10^6 cells and 1074 MNs per 10^6 cells and 1282 MNs per 10^6 cells and 1124 ± 108 MNs per 10^6 cells
same,Difference Mn96 - Mn0 (difference of the means),"[2]; CP 100 μg/g body wt IP at 0 and 48 hours, t=96 hr mean minus t=0 mean",1123 MNs per 10^6 cells
same,MN formation,[2]; CP 100 μg/g body wt at 0 and 48 hours,large increase in MN formation
same,"Increase in MNs (MeanCP - MeanSaline), from mean Δ (T96 - T0)","[2]; first method: difference of mean individual Δ values, CP minus saline",1047 MNs per 10^6 cells
same,"Increase in MNs (MeanCP - MeanSaline), from Mn96 - Mn0 of means","[2]; second method: difference of means, CP minus saline",1047 MNs per 10^6 cells
same,"Increase in MNs, means of the t=96 hr samples (dosed minus controls)","[2]; third method: t=0 values ignored, 1,000,000 cells",992 MN-cells
